Results taken from patent publication US11701371B2, “ENPP1 inhibitors and their use for the treatment of cancer” (THE BOARD OF TRUSTEES OF THE LELAND STANFORD JUNIOR …, priority 2017, dated 2023).

How the values were obtained:
[1] = target: T1, purified recombinant mouse ENPP1 (Mus musculus (Mouse), UniProt P06802); experiment: ENPP1 activity assay using TMP-pNP as a substrate; assay type: biochemical; conditions: TMP-pNP 2 μM, mouse ENPP1 0.5 nM, pH 7.5
Method: Selected compounds of Table 1, Table 2 and other derivatives were prepared and assessed in an ENPP1 activity assay using thymidine monophosphate paranitrophenol (TMP-pNP) as a substrate. Enzyme reactions were prepared with TMP-pNP (2 μM), 5-fold dilutions of ENPP1 inhibitor, and purified recombinant mouse ENPP1 (0.5 nM) in 100 mM Tris, 150 mM NaCl, 2 mM CaCl2, 200 μM ZnCl2, pH 7.5 at room temperature. Reaction progress was monitored by measuring absorbance at 400 nm of paranitrophenolate produced by the reaction for 20 minutes.

[2] = target: T1, purified recombinant mouse ENPP1; experiment: ENPP1 enzyme activity assay using 32P cGAMP as a substrate; assay type: biochemical; conditions: 32P-cGAMP 5 μM, mouse ENPP1 20 nM, pH 7.5, 5 hours
4T1-luciferase tumor = 4T1-luciferase tumor model with IR, cGAMP and anti-CTLA-4: tumor volume and survival; assay type: in vivo, mouse; conditions: single agent intratumoral on day 2, 4 and 7 after 20 Gy IR

T1 sequence (P06802 whole entry): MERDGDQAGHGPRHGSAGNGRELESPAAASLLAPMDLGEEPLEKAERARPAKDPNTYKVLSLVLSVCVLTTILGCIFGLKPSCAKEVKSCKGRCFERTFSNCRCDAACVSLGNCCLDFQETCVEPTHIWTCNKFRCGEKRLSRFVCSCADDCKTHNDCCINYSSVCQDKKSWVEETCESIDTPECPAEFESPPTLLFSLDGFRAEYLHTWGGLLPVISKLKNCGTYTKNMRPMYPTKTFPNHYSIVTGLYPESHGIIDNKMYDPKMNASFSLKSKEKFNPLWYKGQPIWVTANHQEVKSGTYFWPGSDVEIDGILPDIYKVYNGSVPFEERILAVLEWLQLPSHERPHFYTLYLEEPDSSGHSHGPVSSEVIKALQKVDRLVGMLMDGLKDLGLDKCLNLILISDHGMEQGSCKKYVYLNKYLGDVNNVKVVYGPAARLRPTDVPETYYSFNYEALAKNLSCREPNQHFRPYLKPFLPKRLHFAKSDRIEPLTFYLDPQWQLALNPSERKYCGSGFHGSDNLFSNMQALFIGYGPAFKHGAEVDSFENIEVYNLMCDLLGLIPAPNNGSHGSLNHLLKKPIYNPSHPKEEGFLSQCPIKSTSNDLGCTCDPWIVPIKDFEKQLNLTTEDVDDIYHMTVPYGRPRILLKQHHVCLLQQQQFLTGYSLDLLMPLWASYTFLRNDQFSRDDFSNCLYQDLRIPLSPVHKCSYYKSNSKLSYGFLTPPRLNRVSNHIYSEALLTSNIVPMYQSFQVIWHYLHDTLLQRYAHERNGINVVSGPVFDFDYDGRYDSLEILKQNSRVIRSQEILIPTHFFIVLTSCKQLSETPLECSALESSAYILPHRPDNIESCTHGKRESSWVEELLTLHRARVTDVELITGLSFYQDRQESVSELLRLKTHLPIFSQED

In the case of `O=P(O)(O)CCC1CCN(c2ncnc3nc[nH]c23)CC1` [Compound 68], the IC50 [1] was 0.5 to 5 µM.
For `COc1ccc2c(N3CCC(CCP(=O)(O)O)CC3)nc(C)nc2c1` [Compound 12], the IC50 [2] was 0.5 to 5 µM.
With `Nc1nc2c(ncn2[C@@H]2O[C@@H]3COP(=O)(O)O[C@H]4[C@@H](O)[C@H](n5cnc6c(N)ncnc65)O[C@@H]4COP(=O)(O)O[C@@H]2[C@@H]3O)c(=O)[nH]1` [cGAMP, cyclic guanosine monophosphate-adenosine monophosphate] the “tumor shrinkage effect on top of IR treatment” value (4T1-luciferase tumor) was “no effect over IR treatment”.
